The term Kd denotes the constant that tells how readily two partners part at equilibrium. A higher Kd goes with a looser complex. The EC50 is the concentration that produces a half-maximal response. Usually EC90 stands for the concentration at which the effect reaches the 90% level. A high value points to a need for much substance.

Data on one molecule can be found in publication PMC7392643, “Antibiotic fidaxomicin is an RdRp inhibitor as a potential new therapeutic agent against Zika virus” (BMC Medicine, 2020).

Assay [1] concerns the target T1, ZIKV NS5 full-length protein (Zika virus, UniProt A0A024B7W1).
T1 construct: NS5 (amino acids 1 to 903); His tag (8x histidine) (N); made in house; host or cells: Escherichia coli (Rosetta)
Description: SPR (BIAcore) binding to ZIKV NS5 full-length protein. The method, then: (§1) The cDNA fragment of ZIKV (ZG-01 strain) NS5 (amino acids 1 to 903), RdRp (amino acids 272 to 903), or DENV2 NS5 (amino acids 1 to 900) containing an N-terminal His tag sequence was cloned into a pET-30a-mutant vector. For protein expression, the plasmids were transformed into Rosetta™ competent cells (TIANGEN BIOTECH Co., Ltd., Beijing, China), respectively. […] Mass spectrometry was performed by Shanghai Applied Protein Technology Co. Ltd. (Shanghai, China). The concentration of a targeted protein was measured by SDS-PAGE using BSA (Sigma, St. Louis, MO) as a standard.
(§2) Surface plasmon resonance (SPR) experiments were performed in a BIAcore T100 device (BIAcore Inc., Uppsala, Sweden) using CM5 sensor chips (General Electric Company, GE) according to the protocol provided by the manufacturer. Briefly, recombinant ZIKV NS5 protein, RdRp protein, or DENV2 NS5 protein was immobilized on a CM5 chip, respectively. Different concentrations of fidaxomicin or ribavirin were injected at a flow rate of 30 μL/min for 3 min. Subsequently, data were collected for a 3-min association followed by a 20-min dissociation. The chip was regenerated by injecting 10 μL of 15 mM NaOH for 20 s. […] The binding kinetics was analyzed with the software BIAevaluation version 3.1 using a 1:1 Langmuir binding model. The Kd was calculated as previously described.

For a further assay, the target named is T2, DENV2 NS5 protein (Dengue virus type 2, UniProt P14340).
T2 construct: DENV2 NS5 (amino acids 1 to 900); His tag (N); made in house
Put plainly: SPR (BIAcore) binding to DENV2 NS5 protein. The following applies: qualitative. The method, then: as §1, §2
Background: Surface plasmon resonance follows binding to a sensor surface in real time, without labels.

The subject of the next assay is DENV2 (NGC). Put plainly: In vitro anti-DENV assay, RT-qPCR. The following applies: Dengue virus. Format: cell-based, Dengue-2 virus. (In general: In qPCR the cycle at which signal appears reflects the starting amount.)

T1 sequence (A0A024B7W1 2521-3423): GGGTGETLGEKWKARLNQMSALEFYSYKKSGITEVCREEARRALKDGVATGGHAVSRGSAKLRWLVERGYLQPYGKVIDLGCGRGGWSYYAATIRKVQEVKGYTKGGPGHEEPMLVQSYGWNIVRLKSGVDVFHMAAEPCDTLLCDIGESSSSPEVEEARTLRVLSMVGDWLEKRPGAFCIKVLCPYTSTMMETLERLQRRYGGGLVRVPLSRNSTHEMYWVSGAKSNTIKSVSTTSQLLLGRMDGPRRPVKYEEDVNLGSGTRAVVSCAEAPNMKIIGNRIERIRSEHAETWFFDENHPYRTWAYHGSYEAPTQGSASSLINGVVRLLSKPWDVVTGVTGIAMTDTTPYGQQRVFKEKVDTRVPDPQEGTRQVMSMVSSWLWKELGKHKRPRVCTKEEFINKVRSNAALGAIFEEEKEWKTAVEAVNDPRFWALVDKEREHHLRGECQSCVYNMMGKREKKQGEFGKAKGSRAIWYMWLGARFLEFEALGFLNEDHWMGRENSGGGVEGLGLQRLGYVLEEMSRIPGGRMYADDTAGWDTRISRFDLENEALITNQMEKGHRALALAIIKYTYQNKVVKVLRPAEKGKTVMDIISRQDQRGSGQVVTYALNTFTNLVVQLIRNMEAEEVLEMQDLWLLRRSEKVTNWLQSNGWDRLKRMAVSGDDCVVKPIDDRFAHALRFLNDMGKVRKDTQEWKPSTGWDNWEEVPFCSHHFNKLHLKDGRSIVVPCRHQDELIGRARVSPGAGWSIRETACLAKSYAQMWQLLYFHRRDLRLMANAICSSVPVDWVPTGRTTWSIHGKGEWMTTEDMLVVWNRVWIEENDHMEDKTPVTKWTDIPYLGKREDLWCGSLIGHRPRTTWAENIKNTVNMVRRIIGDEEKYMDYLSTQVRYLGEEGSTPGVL

As for `CCc1c(Cl)c(O)c(Cl)c(O)c1C(=O)O[C@H]1[C@H](O)[C@H](OC)[C@H](OC/C2=C\C=C\C[C@H](O)/C(C)=C/[C@H](CC)[C@@H](O[C@@H]3OC(C)(C)[C@@H](OC(=O)C(C)C)[C@H](O)[C@@H]3O)/C(C)=C/C(C)=C/C[C@@H]([C@@H](C)O)OC2=O)O[C@@H]1C` [Fidaxomicin], in assay [1], binding was characterised by a dissociation constant (Kd) of 18.1 µM. Moreover, the “binding to DENV2 NS5 protein (SPR)” value at DENV2 NS5 protein was “affinity”. Moreover, in the assay on DENV2 (NGC) (DENV2, A549 cells), the response was half-maximal at 9.9 ± 2.5 µM (EC50) and the 90% effect level (EC90) was put at 18 ± 4.2 µM. Also, in the assay on DENV2 (NGC) (DENV2, SNB-19, SNB19 cells), the midpoint of the response, the EC50, lay at 6.8 ± 1.5 µM and it took 10.6 ± 2.1 µM to reach the 90% level (EC90).
